Measurements reported in patent US20100248960A1, “Method For Protecting Cereals From Being Infected By Fungi” (BASF SE, priority 2007, published 2010).

Columns and labels:
Puccinia recondita [1] = assay: Curative control of brown rust on wheat caused by Puccinia recondita; assay type: in vivo; details: assessed after 8 days, efficacy in % of untreated control (90% infection), read-out: Observed activity (% infection); for inhibition at 0.063 ppm: 192 h; for inhibition at 0.25 ppm: sprayed 1 day after inoculation
Description: (§1) The active compounds were prepared as a stock solution comprising 25 mg of N-(trans-2-bicycloprop-2-ylphenyl)-3-difluoromethyl-1-methyl-1H-pyrazole-4-carboxamide (Ia), which was made up to 10 ml using a mixture of acetone and/or dimethyl sulfoxide and the emulsifier Wettol® EM31 (wetting agent having an emulsifying and dispersing action based on ethoxylated alkylphenols) in a ratio by volume of solvent/emulsifier of 99:1. The mixture was then made up to 100 ml with water. This stock solution was diluted with the solvent/emulsifier/water mixture described to give the concentration of active compound stated below. Epoxiconazole and metconazole were employed as a commercial finished formulation and diluted with water to the stated concentration of active compound.
(§2) The visually determined percentages of infected leaf areas were converted into efficacies in % of the untreated control.
(§3) The efficacy (E) is calculated as follows using Abbot's formula: […]
(§4) αcorresponds to the fungicidal infection of the treated plants in % and βcorresponds to the fungicidal infection of the untreated (control) plants in %
(§5) An efficacy of 0 means that, the infection level of the treated plants corresponds to that of the untreated control plants; an efficacy of 100 means that the treated plants were not infected.
(§6) The expected efficacies of active compound combinations were determined using Colby's formula (Colby, S.R. “Calculating synergistic and antagonistic responses of herbicide combinations”, Weeds, 15, pp. 20-22, 1967) and compared with the observed efficacies.
(§7) Colby's formula: E=x+y−x•y/100 • E expected efficacy, expressed in % of the untreated control, when using the mixture of the active compounds A and B at the concentrations a and b • x efficacy, expressed in % of the untreated control, when using the active compound A at the concentration a • y efficacy, expressed in % of the untreated control, when using the active compound B at the concentration b
The first two developed leaves of pot-grown wheat seedling were dusted with spores of Puccinia recondita. To ensure the success the artificial inoculation, the plants were transferred to a humid chamber without light and a relative humidity of 95 to 99% and 20 to 22° C. for 24 h. The next day the plants were sprayed to run-off with an aqueous suspension, containing the concentration of active ingredient as described below. The plants were allowed to air-dry. Then the trial plants were cultivated for 8 days in a greenhouse chamber at 22-26° C. and a relative humidity between 65 and 70%. The extent of fungal attack on the leaves was visually assessed as % diseased leaf area. The expected efficacies of mixtures of active compounds were determined using Colby's formula and compared with the observed efficacies.

Puccinia recondita [2] = assay: Preventative control of brown rust on wheat caused by Puccinia recondita; assay type: in vivo; details: efficacy in % of untreated control (90% infection), read-out: Observed activity (% infection); for inhibition at 1 ppm: sprayed 1 day before inoculation
Description: as §1, §2, §3, §4, §5, §6, §7
The first two developed leaves of pot-grown wheat seedling were sprayed to run-off with an aqueous suspension, containing the concentration of active ingredient as described below. The next day the plants were inoculated with spores of Puccinia recondita. To ensure the success the artificial inoculation, the plants were transferred to a humid chamber without light and a relative humidity of 95 to 99% and 20 to 22° C. for 24 h. Then the trial plants were cultivated for 6 days in a greenhouse chamber at 22-26° C. and a relative humidity between 65 and 70%. The extent of fungal attack on the leaves was visually assessed as % diseased leaf area.
The expected efficacies of mixtures of active compounds were determined using Colby's formula and compared with the observed efficacies.

Compound	inhibition at 0.063 ppm (Puccinia recondita [1]) [%]	inhibition at 0.25 ppm (Puccinia recondita [1]) [%]	inhibition at 0.25 ppm (Puccinia recondita [2]; 0.25 ppm) [%]	inhibition at 1 ppm (Puccinia recondita [2]) [%]	inhibition at 0.063 ppm (Puccinia recondita [2]; 0.063 ppm) [%]
Fc1ccc([C@]2(Cn3cncn3)O[C@H]2c2ccccc2Cl)cc1 (racemic) [epoxiconazole]	22	–	–	–	–
Cn1cc(C(=O)Nc2ccccc2[C@@H]2C[C@H]2C2CC2)c(C(F)F)n1 [Compound (Ia), N-(trans-2-bicycloprop-2-ylphenyl)-3-difluoromethyl-1-methyl-1H-pyrazole-4-carboxamide]	0	0	0	22	–
CC1(C)CCC(Cc2ccc(Cl)cc2)C1(O)Cn1cncn1 (centres unmarked) [metconazole]	–	44	–	0	0
